Results taken from article PMC6692352, “DF2726A, a new IL-8 signalling inhibitor, is able to counteract chemotherapy-induced neuropathic pain” (Scientific Reports, 2019).

Key:
[1] = system: F11 cells; assay: Cell viability assay in F11 neuronal cells; conditions: 24 h, 5–60 µM
Procedure: For the subsequent experiments, DF2726A was used at a final concentration of 1 µM, and oxaliplatin at a final concentration of 20 µM. For comparison, paclitaxel alone or in combination with DF2726A was also used.
F11 hybridoma cells (ECACC 08062601), chosen as a model of DRG neurons[22],[32],[33] were cultivated in DMEM (Euroclone, Milan, Italy) supplemented with 10% FBS (Sigma-Aldrich, St. Louis, MO, USA), 1% penicillin/streptomycin (Euroclone, MI, Italy) and 1% glutamine (Euroclone) at 37 °C, in humidified 95% air with 5% CO2 atmosphere. For all the experiments, cells were used at 18th passage.
Supplementary Fig. 2: Effect of DF2726A, oxaliplatin and paclitaxel treatment on neuronal cell
viability. Cell viability assay of F11 cells after treatment at different concentrations of DF 2726A
(DF; 1-20 µM), oxaliplatin (OXA, 5-60 µM), paclitaxel (PAC, 5-20 nM) and the combination of 20
µM oxaliplatin+DF2726A (Oxa+DF) and paclitaxel+DF2726A (PAC+DF) at 24 h. Data are means

[2] = set-up: method as in PMID 28423567; conditions: p.o. administration ref 22; cited from earlier work

Row | Compound | Neuronal cell viability [1] | half-life [2] [h]
1 | O=C1[O][Pt]2([NH][C@@H]3CCCC[C@H]3[NH]2)[O]C1=O [oxaliplatin, reference compound] | ineffective in modulating neuronal cell viability | –
2 | CC(C)Cc1ccc([C@@H](C)C(=O)NS(C)(=O)=O)cc1 [reparixin] | – | 1.78
